Experimental data published in patent publication US20040224995A1 (University of North Texas Health Science Center at Fort …, priority 2003, published 2004).

How the values were obtained:
[1] = test system: HT-22 cells; assay: HT-22 cell viability during glutamate exposure (calcein AM assay); type: cell-based; settings: for neuroprotection after withdrawal of compound-containing medium: 24 h preincubation, medium washed away, then glutamate (15 mM); for concentration at which toxicity was observed: HT-22, glutamate experiments; for neuroprotection against glutamate insult (cell viability): HT-22, 24 h preincubation before glutamate
Source text: Although not wanting to be bound by theory, the toxicity of glutamate in HT-22 (32) and C6 glioma (33) cell lines is mediated through oxidative stress. HT-22 cells lack ionotropic N-methyl-D-aspartate (“NMDA”) glutamate receptors, and the glutamate-induced cell death appears to occur via a slow onset oxidative stress (32,34,35). Glutamate blocks cystine uptake by inhibiting the glutamate/cystine antiporter in both HT-22 (32) and C6 glioma (33) cell lines. Since cysteine is required for glutathione (“GSH”) synthesis, the intracellular concentration of GSH decreases as a consequence. BSO depletes intracellular glutathione by inhibiting γ-glutamylcysteine synthetase, the rate-limiting enzyme in glutathione synthesis (33). […] Troglitazone further protected HT-22 (FIG. 14) and RGC-5 (FIG. 15) against BSO. The cell viability was taken at time points around about 14 to 24 hours post-insult time. In some of the experiments, the viability of cells was determined using 2.5 μM calcein AM assay in phosphate-buffered saline (PBS 1×). After 25 minutes of incubation, live cells were distinguished by the presence of intracellular esterase activity, which cleaves the calcein AM dye, producing a bright green fluorescence, as shown in FIG. 22. Viability was measured in Relative Fluorescent Units (“RFU”), and expressed as percentage of vehicle-treated control values.
15d-PGJ2 and two TZD's (e.g. troglitazone and ciglitazone) were tested for their ability to protect HT-22 cells against glutamate toxicity. […] HT-22 cells were treated with 15-dPGJ2 twenty-four hours prior to a glutamate insult (15 mM). […] The data of FIG. 24 was quantified using the calcein AM assay (see FIG. 22). Results are expressed in % survival of the control (non-glutamate-treated) cultures. DMSO received the vehicle only for 15d-PGJ2. Shown are mean±SEM for 6. The asterisk (“*”) indicates p<0.05 vs. respective control.
In order to conduct these experiments, the following compounds: PGA1; PGA2; PGJ2; Δ^12PGJ2; and 15d-PGJ2 were ordered from Biomol, Plymouth Meeting, Pa. HT-22, an immortalized mouse hippocampal cell line, C6 rat glioma, RGC-5 retinal ganglion cells were used. Cells were grown to confluence in DMEM media, and supplemented with 10% charcoal/dextran-treated fetal bovine serum (“FBS”), and […] gentamycin at 37° C. under 95% air, 5% CO2. HT-22, C6, and RGC-5 cells were plated at a density of 50,000, 35,000, and 10,000 cells/ml, respectively, in 96-well plates. Wells were pre-treated with cyclopentenone PGs at various times prior to being subjected to glutamate, hydrogen peroxide (H2O2), or BSO insults.
The WY-14643, Ciglitazone, Troglitazone, 9-cis retinoic acid, and 15d-PGJ2 compounds were purchased from Biomol (Plymouth Meeting, Pa.). L-165041 and L-783483 were kindly provided by Merck Laboratories. The cell lines used were HT-22, an immortalized mouse hippocampal cell line, and SK—N—SH, a human neuroblastoma cell line. The HT-22 cells were obtained from David Schubert (Salk Institute, San Diego, Calif.). The HT-22 line was originally selected from HT-4 cells based on glutamate sensitivity. HT-4 cells were immortalized from primary hippocampal neurons using a temperature-sensitive SV-40 T antigen (Morimoto and Koshland, 1990). SK—N—SH were obtained from ATCC (Manassas, Va.). HT-22 and SK—N—SH cells were grown to confluence in DMEM and RPMI-1640 media, respectively, and supplemented with 10% charcoal/dextran-treated fetal bovine serum (FBS), and 5 mg/ml gentamycin at 37° C. under 95% air, 5% CO2. HT-22 cells were plated at a density of 50,000 cells/ml (5,000 cells/well), and SK—N—SH were plated at a density of 120,000 to 150,000 cells/ml (12,000 to 15,000 cells/well) in 96-well plates. In most studies, wells were pre-treated with PPAR ligands over a wide dose range at various times prior to being subjected to either glutamate, hydrogen peroxide (H2O2), or serum deprivation insults. In some studies, the insults were applied prior to the addition of the PPAR ligand. […]

[2] = test system: SK—N—SH cells; assay: SK-N-SH H2O2 and serum deprivation insults; type: cell-based, human
Protocol: Additionally, the effects of pretreatment with PPARγ agonists on H2O2 and serum deprivation toxicities were studied in SK—N—SH cells. After showing that protection in HT-22 cells was insult-type specific, we investigated whether it was also cell-type specific. We used SK—N—SH, a human neuroblastoma cell lines, and tested whether 15d-PGJ2 and troglitazone would protect SK—N—SH against H2O2 and serum deprivation insults. […] Higher concentrations (>10 μM and >20 μM) of 15dPGJ2 and troglitazone, respectively, were toxic to SK—N—SH cells.
The WY-14643, Ciglitazone, Troglitazone, 9-cis retinoic acid, and 15d-PGJ2 compounds were purchased from Biomol (Plymouth Meeting, Pa.). L-165041 and L-783483 were kindly provided by Merck Laboratories. The cell lines used were HT-22, an immortalized mouse hippocampal cell line, and SK—N—SH, a human neuroblastoma cell line. The HT-22 cells were obtained from David Schubert (Salk Institute, San Diego, Calif.). The HT-22 line was originally selected from HT-4 cells based on glutamate sensitivity. HT-4 cells were immortalized from primary hippocampal neurons using a temperature-sensitive SV-40 T antigen (Morimoto and Koshland, 1990). SK—N—SH were obtained from ATCC (Manassas, Va.). HT-22 and SK—N—SH cells were grown to confluence in DMEM and RPMI-1640 media, respectively, and supplemented with 10% charcoal/dextran-treated fetal bovine serum (FBS), and 5 mg/ml gentamycin at 37° C. under 95% air, 5% CO2. HT-22 cells were plated at a density of 50,000 cells/ml (5,000 cells/well), and SK—N—SH were plated at a density of 120,000 to 150,000 cells/ml (12,000 to 15,000 cells/well) in 96-well plates. In most studies, wells were pre-treated with PPAR ligands over a wide dose range at various times prior to being subjected to either glutamate, hydrogen peroxide (H2O2), or serum deprivation insults. In some studies, the insults were applied prior to the addition of the PPAR ligand.
The cell viability assays were conducted about 14 to 24 hours post-insult time, viability of cells was determined using 2.5 μM Calcein AM assay in phosphate-buffered saline (PBS). After 25 minutes of incubation, live cells were distinguished by the presence of intracellular esterase activity, which cleaves the calcein AM dye, producing a bright green fluorescence. Viability was measured in Relative Fluorescent Units (“RFU”), and expressed as percentage of vehicle-treated control values. The calcein assay was designed to produce results that accurately reflect viable cell numbers. At cell concentrations below 10,000 cells per well (96-well plate) a linear relationship between RFU and cell number is achieved (r^2=0.9997, data not shown).

`CCCCC/C=C/C=C1/C(=O)C=C[C@@H]1C/C=C\CCCC(=O)O` [15d-PGJ2, 15-deoxy-Δ^12,14-PGJ2] was tested, and the “neuroprotection after withdrawal of compound-containing medium” value [1] was “protected in a dose dependent manner”, the “concentration at which toxicity was observed” value [1] was at least 10 µM and the “neuroprotection against glutamate insult (cell viability)” value [1] was “dose-dependent protection”. The “neuroprotective effect of prostaglandins against glutamate toxicity” value ([1]; added 24 h before glutamate (15 mM), viability 15 h later) was “potent neuroprotective effect”, the “neuroprotection when added with or after glutamate” value ([1]; added at same time as glutamate or up to ten hours thereafter) was “failed to display any neuroprotective effects” and the “exposure time required to achieve significant neuroprotection” value ([1]; preincubation before glutamate (15 mM), 5 μM) was “four to six”. For the same molecule, the “concentrations toxic to SK-N-SH cells” value [2] was over 10 µM and the “protection against H2O2 and serum deprivation insults” value [2] was “Neither of the compounds protected”.
For `Cc1c(C)c2c(c(C)c1O)CCC(C)(COc1ccc(CC3SC(=O)NC3=O)cc1)O2` (stereo not shown) [troglitazone], the “neuroprotection after withdrawal of compound-containing medium” value [1] was “loss of neuroprotection”, the “concentration at which toxicity was observed” value [1] was at least 20 µM and the “neuroprotection against glutamate insult (cell viability)” value [1] was “dose-dependent protection”. The “protection versus time of administration prior to glutamate insult” value ([1]; administered 0 to 10 hours prior to insult) was “equally protective”, the “time post glutamate insult up to which neuroprotective effects remained unaltered” value ([1]; post-treatment 0 to 10 hours after glutamate) was “up to 6 hours” and the “protection at 8 and 10 hours post glutamate insult” value ([1]; post-treatment, extent of protection decreased) was “still significantly protected”. For the same molecule, the “concentrations toxic to SK-N-SH cells” value [2] was over 20 µM and the “protection against H2O2 and serum deprivation insults” value [2] was “Neither of the compounds protected”.
